The structures appear in SMILES notation. ≈ marks a conversion by molar mass, not a printed value. Where “and” joins values, the source holds several entries; their conditions need not be identical. Equal entries are not always repeated. Some results are limits rather than exact numbers.

This note sets out measurements from DBAASP.

Among the test systems are Escherichia coli TOP 10; Candida albicans CA1; Acinetobacter baumannii; Escherichia coli O157:H7; Vibrio cholerae O1 Inaba; Escherichia coli C600; Candida albicans.
What all share (experiment): ≥ marks a high value that may be exact or a test limit, other limits are often not marked, values filed in µg/mL are converted to µM
In assay [1] the test system is Mannheimia haemolytica 82-25.
Assay [2] has as its system Candida krusei ATCC 40095.
The test system of assay [3] is Candida krusei ATCC 40147.
Assay [4] has as its system Candida parapsilosis ATCC 90018.
In assay [5] the test system is Acinetobacter baumannii ATCC BAA-747.
Assay [6] concerns Enterococcus faecium ATCC 700221.
Assay [7] concerns Escherichia coli ATCC 25922.
The subject of assay [8] is Klebsiella pneumoniae ATCC 700603.
Assay [9] concerns Pseudomonas aeruginosa ATCC 27853.
Assay [10] relates to Salmonella enterica ATCC 6539.
For assay [11], the system named is Staphylococcus aureus ATCC 43300.
The subject of assay [12] is Bacillus cereus ATCC 11778.
Assay [13] deals with Enterococcus faecalis ATCC 29212.
The subject of assay [14] is Listeria monocytogenes 10403s.
Assay [15] deals with Salmonella enterica subsp. enterica serovar Typhimurium ATCC 13311.
Assay [16] concerns Shigella sonnei ATCC 11060.
Assay [17] concerns Staphylococcus aureus ATCC 25923.
For assay [18], the system named is Staphylococcus epidermidis ATCC 12228.
The subject of assay [19] is Staphylococcus aureus SH1000.
Assay [20] relates to Pseudomonas aeruginosa PAO1.
The subject of assay [21] is Staphylococcus aureus 209P.
For assay [22], the system named is Candida albicans CGMCC 2.2086.
Assay [23] relates to Candida parapsilosis CGMCC 2.3989.
Assay [24] has as its system Candida tropicalis CGMCC 2.1975.

`NCCCC[C@H](NC(=O)[C@H](CC(=O)O)NC(=O)[C@H](CC(=O)O)NC(=O)[C@H](CC(=O)O)NC(=O)[C@@H](N)CC(=O)O)C(=O)O` [DDDDK] gave an MIC in [1] of at least 90 µM.
Take `CC[C@H](C)[C@H](NC(=O)[C@H](C)NC(=O)[C@H](CS)NC(=O)[C@H](CC(C)C)NC(=O)[C@@H](NC(=O)[C@H](C)NC(=O)[C@H](CCCN=C(N)N)NC(=O)[C@@H](NC(=O)[C@@H](NC(=O)[C@H](CCCCN)NC(=O)[C@@H](NC(=O)[C@@H](NC(=O)[C@@H]1CCCN1C(=O)CNC(=O)[C@H](CC(C)C)NC(=O)[C@@H](N)Cc1ccccc1)[C@@H](C)CC)[C@@H](C)CC)[C@@H](C)O)C(C)C)C(C)C)C(=O)N[C@@H](CCCCN)C(=O)N[C@@H](CCCCN)C(=O)N[C@@H](CC(C)C)C(N)=O` [FLGPIIKTVRAVLCAIKKL]: the MIC against Escherichia coli TOP 10 turned out to be 12 µM (≈ 25 µg/mL). This lies in the double-digit micromolar range.
With `CC[C@H](C)[C@H](NC(=O)[C@H](C)NC(=O)[C@H](CCCCN)NC(=O)[C@H](CC(C)C)NC(=O)[C@H](C)NC(=O)[C@H](Cc1c[nH]c2ccccc12)NC(=O)[C@H](CCCCN)NC(=O)[C@H](C)NC(=O)[C@H](CC(C)C)NC(=O)[C@@H](NC(=O)CNC(=O)[C@H](Cc1c[nH]c2ccccc12)NC(=O)[C@@H](N)Cc1ccccc1)[C@@H](C)O)C(=O)O` [FWGTLAKWALKAI], the MIC is 10 µM (≈ 15 µg/mL) against Candida albicans CA1; 10 µM and 20 µM in assay [2]; 10 µM (≈ 15 µg/mL) in assay [3]; 20 µM (≈ 30.1 µg/mL) in [4].
Turning to `NCC(=O)NCC(=O)N[C@@H](Cc1cnc[nH]1)C(=O)O` [GGH], the MIC was at least 476 µM in [5]; at least 476 µM in assay [6]; over 476 µM in assay [7]; over 476 µM in assay [8]; over 476 µM in [9]; at least 476 µM in assay [10]. For the same compound, in assay [11], the MIC is over 476 µM.
`CC[C@H](C)[C@H](NC(=O)[C@H](CCCN=C(N)N)NC(=O)[C@H](CCCCN)NC(=O)[C@H](C)NC(=O)[C@@H](NC(=O)[C@@H](N)CCCCN)[C@@H](C)CC)C(=O)N[C@@H](Cc1c[nH]c2ccccc12)C(=O)N[C@@H](CCCCN)C(=O)N[C@H](C(=O)N[C@@H](CC(C)C)C(=O)N[C@@H](CCCN=C(N)N)C(=O)N[C@@H](CCCN=C(N)N)C(=O)N[C@@H](CCCN=C(N)N)C(=O)N[C@@H](CC(C)C)C(=O)N[C@@H](Cc1ccccc1)C(=O)N[C@@H](CCCN=C(N)N)C(N)=O)[C@@H](C)CC` [KIAKRIWKILRRRLFR]: the MIC with Acinetobacter baumannii came to 3.63 µM (≈ 7.81 µg/mL); in [12] it was 1.82 µM (≈ 3.91 µg/mL); in assay [13], 7.26 µM (≈ 15.6 µg/mL); in assay [7], 3.63 µM (≈ 7.81 µg/mL); in the assay with Escherichia coli O157:H7 it was 29 µM (≈ 62.5 µg/mL); in assay [14], 1.82 µM (≈ 3.91 µg/mL). Also, the MIC in assay [9] stood at 3.63 µM (≈ 7.81 µg/mL); in assay [15] it was 0.905 µM (≈ 1.95 µg/mL); in assay [16], 1.82 µM (≈ 3.91 µg/mL); in [17], 3.63 µM (≈ 7.81 µg/mL); in [18] it was 1.82 µM (≈ 3.91 µg/mL); against Vibrio cholerae O1 Inaba, 1.82 µM (≈ 3.91 µg/mL).
In the case of `CC[C@H](C)[C@H](NC(=O)[C@H](CC(=O)O)NC(=O)[C@H](CC(C)C)NC(=O)[C@H](CC(C)C)NC(=O)[C@@H](N)CCCCN)C(=O)N[C@H](C(=O)N[C@@H](CCCCN)C(=O)N[C@@H](CCCCN)C(=O)N[C@H](C(=O)N[C@H](C(=O)NCC(=O)N[C@@H](C)C(=O)N[C@@H](CC(C)C)C(=O)NCC(N)=O)C(C)C)C(C)C)C(C)C` [KLLDIVKKVVGALG], in [19], the MIC was at least 100 µM.
`CC[C@H](C)[C@@H]1NC(=O)CNC(=O)[C@H](CCCN=C(N)N)NC(=O)[C@H](Cc2ccc(O)cc2)NC(=O)[C@@H]2CSSC[C@H](NC1=O)C(=O)N[C@@H](Cc1ccc(O)cc1)C(=O)N[C@@H](CCCN=C(N)N)C(=O)N[C@@H](CCCN=C(N)N)C(=O)N[C@H](C(=O)N[C@@H](CCCN=C(N)N)C(=O)O)CSSC[C@H](NC(=O)[C@H](Cc1c[nH]c3ccccc13)NC(=O)[C@@H](N)CCCCN)C(=O)N[C@@H](Cc1ccccc1)C(=O)N[C@@H](CCCN=C(N)N)C(=O)N[C@@H](CO)C(=O)N2` [KWCFRSCYRGICYRRCR]: the MIC with Escherichia coli C600 came out at 1.56 µM (≈ 3.51 µg/mL); in assay [20] it was 12.5 µM (≈ 28.2 µg/mL); in [21], 6.25 µM (≈ 14.1 µg/mL).
Turning to `CC[C@H](C)[C@H](NC(=O)CNC(=O)[C@H](CCCN=C(N)N)NC(=O)[C@H](Cc1c[nH]c2ccccc12)NC(=O)[C@H](CC(C)C)NC(=O)[C@H](CC(C)C)NC(=O)[C@H](Cc1c[nH]c2ccccc12)NC(=O)[C@H](CCCN=C(N)N)NC(=O)CNC(=O)[C@@H](NC(=O)[C@@H](N)CCCN=C(N)N)[C@@H](C)CC)C(=O)N[C@@H](CCCN=C(N)N)C(=O)N[C@@H](CCCN=C(N)N)C(=O)N[C@H](C(=O)NCC(=O)N[C@@H](CCCN=C(N)N)C(=O)N[C@@H](Cc1c[nH]c2ccccc12)C(=O)N[C@@H](CC(C)C)C(N)=O)[C@@H](C)CC` [RIGRWLLWRGIRRIGRWL], the MIC was 4 µM (≈ 9.45 µg/mL) in assay [22]; 2.83 µM and 4 µM with Candida albicans; 4 µM (≈ 9.45 µg/mL) in assay [23]; 2 µM (≈ 4.73 µg/mL) in assay [24].
